This passage reports EC50, CC50 and selectivity ratio results from ChEMBL document CHEMBL1149476, “Structure-activity relationship study of 9-aminoacridine compounds in scrapie-infected neuroblastoma cells” (Bioorg Med Chem Lett, 2006).

The subject of series [1] is ScN2a. Description: Inhibition of PrPSc accumulation in mouse ScN2a cell line relative to control. Format: functional, cell-based.
Series [2] concerns ScN2a. Description: Cytotoxicity against mouse ScN2a cell line relative to control. It counts as functional. The settings on record: read-out: LD50 (the source's name).
A further series has as its system HEK293. Description: Cytotoxicity against HEK293 cells relative to control. Format: functional. The settings on record: Homo sapiens, read-out: LD50 (the source's name).
The test system of another series is HepG2. Put plainly: Cytotoxicity against HepG2 cells relative to control. Format: functional. The note with it: Homo sapiens, read-out: LD50 (the source's name).
The nature of series [3]: Therapeutic index, LD50 for ScN2a cells/EC50 for PrPSc accumulation in ScN2a cells. The settings on record: mouse, read-out: Ratio LD50/EC50. Format: cell-based.

Broadly, the EC50 is the concentration that produces a half-maximal response. A low value points to greater potency.

Where only a bound is given, the exact number is not on record here.

Take `CCCN(CCC)CCCNc1c2ccc(OC)cc2nc2c(C)cccc12`: the response in the series on ScN2a [1] was half-maximal at 1 µM (EC50). Also, the CC50 amounted to 1.4 µM in the series on ScN2a [2], 0.7 µM in the series on HEK293 and 0.7 µM in the series with HepG2. Moreover, the selectivity ratio in series [3] is 1.3.

Consider `CCCN(CC)CCCNc1c2ccc(OC)cc2nc2ccc(C(F)(F)F)cc12`, for which the EC50 in the series with ScN2a [1] is 0.8 µM. Further, the figures for the CC50 in the series on ScN2a [2], in the series with HEK293 and in the series on HepG2 were 7.6 µM, 14.6 µM and 16.5 µM, respectively. For the same compound, the selectivity ratio in series [3] amounted to 9.8.

`CCCN(CC)CCCNc1c2ccc(OC)cc2nc2ccc(Cl)cc12` returned an EC50 with ScN2a [1] of 0.6 µM. The CC50 in the series with ScN2a [2] was 8.5 µM; in the series with HEK293 it was 4.4 µM; in the series with HepG2, 6.9 µM. In addition, in series [3], the selectivity ratio is 13.6.

In the series with ScN2a [1], `CCCN(CCC)CCCNc1c2ccc(OC)cc2nc2ccc(C(F)(F)F)cc12` gave an EC50 of 0.4 µM. In addition, the values for the CC50 in the series with ScN2a [2], in the series on HEK293 and with HepG2 were 11.7 µM, 16.4 µM and 18.1 µM, respectively. In series [3], the selectivity ratio is 28.6.

`CCCN(CCCNc1c2ccc(OC)cc2nc2c(C)cccc12)CC(C)C` displayed an EC50 with ScN2a [1] of 1 µM. Further, the CC50 in the series with ScN2a [2] turned out to be 1.3 µM; in the series on HEK293, 1.4 µM; in the series with HepG2, 0.7 µM. Moreover, the selectivity ratio in series [3] was 1.3.

In the case of `CCN(CCCNc1c2ccc(OC)cc2nc2ccc(C(F)(F)F)cc12)Cc1ccccc1O`, in the series on ScN2a [1], a half-maximal effect (EC50) was put at 3.9 µM. In addition, the CC50 with ScN2a [2] is 13 µM; in the series with HEK293 it was 23.1 µM; with HepG2 it was over 25 µM. In addition, the selectivity ratio in series [3] was determined as 2.6.

In the series on ScN2a [1], `CCCN(CCC)CCCNc1c2ccc(OC)cc2nc2ccc(Cl)cc12` came in with an EC50 of 0.4 µM. Besides, the CC50 in the series with ScN2a [2] was found to be 6 µM; in the series with HEK293, 10.7 µM; in the series with HepG2, 13.8 µM. In addition, the selectivity ratio in series [3] stood at 15.8.

For the compound `CCCN(CCCNc1c2ccc(OC)cc2nc2ccc(C(F)(F)F)cc12)Cc1ccccc1`, the midpoint of the response in the series with ScN2a [1], the EC50, lay at 7.1 µM. In addition, the CC50 in the series with ScN2a [2] is 18.3 µM; in the series with HEK293, 22.4 µM; in the series on HepG2, over 25 µM. Further, in series [3], the selectivity ratio was 2.6.

Consider `CCCN(CC)CCCNc1c2ccc(OC)cc2nc2c(C)c(F)ccc12`, for which the CC50 was 0.6 µM with ScN2a [2], 0.8 µM in the series on HEK293 and 0.7 µM in the series on HepG2.

In the series on ScN2a [1], `CCCN(CCC)CCCNc1c2ccc(Cl)cc2nc2ccc(OC)cc12` registered an EC50 of 0.6 µM. The CC50 with ScN2a [2] is 6.4 µM. Also, the selectivity ratio in series [3] was 10.9.

`CCN(CC)CCCC(C)Nc1c2ccc(OC)cc2nc2ccc(Cl)cc12` (stereo unspecified) came in with an EC50 with ScN2a [1] of 0.7 µM. Besides, the CC50 in the series with ScN2a [2] worked out at 17.4 µM. In addition, the selectivity ratio in series [3] was 23.3.

`CCN(CCCNc1c2ccc(OC)cc2nc2c(C)c(F)ccc12)CC(C)C`: the results for the CC50 in the series with ScN2a [2], with HEK293 and in the series on HepG2 were 0.6 µM, 0.7 µM and 0.6 µM, respectively.

`CCN(CC)CCCC(C)Nc1c2ccc(Cl)cc2nc2ccc(OC)cc12` (stereo unspecified) [QUINACRINE] showed an EC50 with ScN2a [1] of 0.5 µM. In addition, the CC50 in the series on ScN2a [2] was 9.6 µM; with HEK293, 7.6 µM; with HepG2, 7.9 µM.
